Measurements: patent publication US20250179028A1, “ACRYLAMIDE COMPOUNDS” (NRG THERAPEUTICS LTD, priority 2022, published 2025)
Converted amounts (≈) assume the structure as drawn. Where two headings read alike, the source gives them in different places.

How the values were obtained:
CYP2D6 = CYP2D6 (Homo sapiens (Human), UniProt P10635); experiment: Cytochrome P450 CYP2D6 inhibition in human liver microsomes; type: in vitro ADME; conditions: human liver microsomes, average value from two experiments; for inhibition at 20 min, 1 µM: probe dextromethorphan 2 µM (dextrorphan formation), 1 uM test compound, negative values = no effective inhibition
Chain of CYP2D6 (P10635 whole entry, canonical isoform): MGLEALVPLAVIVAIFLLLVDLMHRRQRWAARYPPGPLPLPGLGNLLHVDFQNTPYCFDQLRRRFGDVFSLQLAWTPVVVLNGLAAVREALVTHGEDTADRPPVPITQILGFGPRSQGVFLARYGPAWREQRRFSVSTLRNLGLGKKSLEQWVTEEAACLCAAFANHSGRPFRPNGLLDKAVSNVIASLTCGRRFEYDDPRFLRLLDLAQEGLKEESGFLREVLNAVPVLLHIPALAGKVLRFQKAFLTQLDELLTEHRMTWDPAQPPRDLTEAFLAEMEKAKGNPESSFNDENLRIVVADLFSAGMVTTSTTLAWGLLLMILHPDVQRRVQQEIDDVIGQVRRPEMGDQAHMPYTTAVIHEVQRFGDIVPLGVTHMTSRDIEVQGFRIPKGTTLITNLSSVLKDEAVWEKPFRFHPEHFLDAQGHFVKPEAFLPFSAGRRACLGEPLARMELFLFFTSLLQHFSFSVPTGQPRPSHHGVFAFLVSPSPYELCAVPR
Description: Studies to assess tested compound mediated inhibition of cytochrome P450 enzyme isoform CYP2D6 were performed using human liver microsomes (BD Gentest) using either a single concentration (1 μM) of test compound or concentration response (0.1, 0.3, 1, 3, 10 and 30 μM) to derive an IC50. Tested compound solutions were prepared from 10 mM stocks in DMSO and diluted to 200 μM in DMSO. Reactions were prepared in a 96 deep well plate by combining 1 μl test compound with 179 μl reaction mixture (100 mM phosphate buffered saline (PBS), 0.2 mg/mL microsomes and 2 μM Dextromethorphan prepared from stocks as detailed below).
The positive control inhibitor, quinidine, was used at a final concentration of 0.5 μM when used at a single concentration. The final concentrations of quinidine used to derive an IC50 were 0, 0.1, 0.3, 1, 3, 10 and 30 μM. Plates were warmed at 37° C. for 15 min before starting reactions with 20 μl 10 mM NADPH solution in PBS and incubated for 20 min at 37° C. The assay is performed in duplicate. Reactions were quenched with 200 μl cold acetonitrile containing internal standards (200 nM labetalol, 200 nM alprazolam and 100 nM tolbutamide). The plate was centrifuged at 4000 rpm for 30 minutes, placed on ice for 20 minutes and then centrifuged at 4000 rpm for 30 minutes again to precipitate protein. 100 μL of the supernatant was transferred to a new plate and diluted with 100 μL pure water before being analysed using UPLC/MS/MS. The products of the transformation for dextromethorphan to dextrorphan was monitored by UPLC-MS/MS. The inhibition of CYP2D6 in human liver microsomes was measured as the percentage decrease in the activity of dextrorphan formation compared to non-inhibited controls (=100% activity). The IC50 value was calculated (test compound concentration which produces 50% inhibition) by using Excel Xlfit.

[1] = Hepatocyte clearance assay, human; type: in vitro ADME; conditions: average value from two experiments, read-out: Human heps Clint
Description: (§1) In vitro clearance studies were performed in primary rat and human hepatocytes (BiolVT). Vials of cryopreserved rat or human hepatocytes were thawed in a 37° C. water bath for 2 min. Cells were transferred into thawing medium (Williams' Medium E containing 30% Percoll, 1×GlutaMAX-1, 15 mM HEPES, 5% fetal bovine serum (FBS), 4 μg/ml insulin, 1 μM dexamethasone), centrifuged at 100 g for 10 min then resuspended in culture medium (Leibovitz's L-15 Medium) at a concentration of 0.5×10^6 viable cells/mL (number of viable cells assessed using AO/PI staining). Hepatocytes (198 μL) were transferred into wells of a 96-well non-coated plate and placed in a 37° C. incubator for 10 min. Test compound solutions were prepared from 10 mM stocks in DMSO, diluted to 100 μM in 50% (v/v in water) acetonitrile. Test compound samples (2 μl) were added to each well of hepatocytes and incubated at 37° C. Samples (25 μl) were collected at t=0, 15, 30, […] and 120 min, mixed with 6 volumes (150 μl) of acetonitrile containing internal standard (100 nM alprazolam, 200 nM caffeine and 100 nM tolbutamide), vortexed for 5 min and centrifuged for 45 min at 3220 g. An aliquot of supernatant (100 μL) was diluted with 100 μL ultra-pure water, and the mixture was used for LC/MS/MS analysis. All incubations were performed in duplicate. Peak areas were determined from extracted ion chromatograms. The slope value, k, was determined by linear regression of the natural logarithm of the remaining percentage of the parent drug vs. incubation time curve. The in vitro half-life (in vitro t½) was determined from the slope value: in vitro t½=0.693/k. Conversion of the in vitro t½ (in min) into the in vitro intrinsic clearance (in vitro CLint, in μL/min/1×10^6 cells) was done using the following equation (mean of duplicate determinations):
(§2) [formula] • V=incubation volume (0.2 mL) • N=number of hepatocytes per well (0.1×10^6 cells).

[2] = PBS and FaSSIF solubility; type: physicochemical; conditions: kinetic from dmso stock
Description: Test compounds were prepared as 10 mM stocks in DMSO and 15 μl samples transferred in duplicate into 1.5 mL glass flat bottom vials (BioTech Solutions). Fasted state simulated intestinal fluid (FaSSIF) or PBS (pH 7.4) was added to each vial to final volume of 500 μl. One PTFE encapsulated stir stick (V&P Scientific) was placed in each vial before sealing with PTFE/SIL plugs (BioTech Solutions). Vials were shaken at 1100 rpm for 2 hr at 25° C. Samples were then filtered through MultiScreen Solvinert filter plates (Millipore) via vacuum filtration. Aliquots of filtrate (5 μl) plus 5 μl DMSO were diluted in 490 μl 50% acetonitrile in water containing internal standard. The filtrate was analysed and quantified against a standard of known concentration using LC-MS/MS. Solubility values of the test compound and control compound were calculated as follows: […]

[3] = Hepatocyte clearance assay, rat; type: in vitro ADME; conditions: average value from two experiments, read-out: Rat heps Clint
Description: as §1, §2

mPTP = mPTP activity (Ca2+ retention) assay in isolated rat liver mitochondria; type: biochemical; conditions: for mPTP Rat liver pIC50: isolated rat liver mitochondria, average value from multiple experiments (n ≥ 2)
From the text: Pharmacological inhibition or modulation of the mPTP can be measured in well characterised ‘Ca^2+ retention’ assays performed in isolated mitochondria. In vitro isolated mitochondria rapidly sequester exogenous Ca^2+ until the intramitochondrial Ca^2+ concentration reaches the threshold for mPTP activation. Once the pore is activated, mitochondrial integrity is compromised and the stored Ca^2+ is released. The distribution of Ca^2+ between extra- and intra-mitochondrial compartments can be measured in real time with the use of membrane-impermeant Ca^2+ sensitive fluorescent dyes. Depending on the configuration of the assay, inhibition or modulation of the mPTP either delays the opening of the pore or increases the concentration of Ca^2+ required to induce mPTP opening.
MPTP activity was measured in mitochondria freshly isolated from female Sprague Dawley (250 to 300 gram) rat livers using the following method. Cervical dislocation was performed on the rat. The liver was then perfused in-situ with ˜40 ml cold Dulbecco's Phosphate Buffered Saline (DPBS) prior to dissection and transferred into 30 ml Isolation Buffer (250 mM Sucrose, 10 mM KCl, 1 mM EGTA, 1 mM EDTA, 25 mM HEPES, adjusted to pH 7.5 with 1 M NaOH). Each lobe of the liver was then removed from the buffer, minced using tweezers and a scalpel into ˜5 mm pieces then transferred into a 50 ml Potterton dounce homogenization tube on ice containing 30 ml ice-cold centrifugation buffer (300 mM Trehalose, 25 mM HEPES, 1 mM EGTA, 1 mM EDTA, 10 mM KCl, adjusted to pH 7.5 with 1 M NaOH and supplemented with 0.1% bovine serum albumin (BSA) and complete protease inhibitor cocktail (one tablet of inhibitor per 50 mls of buffer). Homogenisation was carried out using a teflon pestle at 1800 rpm. The slurry was centrifuged at 800 g for 10 min at 4° C., then the supernatant centrifuged at 10,000 g for 10 min. The pellet was washed once with FLIPR assay buffer (75 mM Mannitol, 25 mM Sucrose, 5 mM Potassium Phosphate Monobasic, 20 mM Tris base, 100 mM KCl, 0.1% BSA adjusted to pH 7.4 with 5M HCl) centrifuged again, then resuspended in FLIPR assay buffer to a concentration of 8.8 mg/ml protein.
Tested compounds (10 mM stock in DMSO) were serially diluted in DMSO in half log steps to generate 10 test concentrations (final concentrations in assay 30 μM to 1 nM). An intermediate dilution of 5 μl DMSO samples into 247 μl FLIPR assay buffer was carried out prior to transfer of 5 μl into duplicate wells of a 384 well polypropylene assay plate. Control wells were 0.5% (v/v) DMSO and 5 μM cyclosporin A.
A stock mitochondria/Fluo5N assay solution was prepared in 5.6 ml FLIPR assay buffer (at RT) supplemented with succinate disodium salt (10 mM), rotenone (1 μM), Fluo5N pentapotassium salt (2 μM) and 1 ml mitochondria suspension, then transferred (15 μl) into the assay plate containing test compounds and incubated for 10 min at RT. Assay plates were then transferred to a FLIPR Tetra plate reader (Molecular Devices). Dye fluorescence was then measured every 3 sec for a total of 10 min. After 12 sec, a 2.5 μl bolus of CaCl2 (75 μM) was added from a source plate containing 675 μM CaCl2 in FLIPR assay buffer. IC50 values for tested compounds were calculated using the fluorescence value collected at the 10 min timepoint with % inhibition calculated using the DMSO control and cyclosporin A values as […] respectively.

[4] = cryopreserved primary hepatocytes
[5] = fasted state simulated intestinal fluid (FaSSIF), fassif, Fasted state simulated intestinal fluid, 2 hr at 25° C., read-out: Solubility FaSSIF
[6] = cryopreserved primary human hepatocytes
[7] = cryopreserved primary rat hepatocytes
[8] = aqueous buffer, PBS pH 7.4, 2 hr at 25° C., read-out: Solubility PBS (pH 7.4)

| inhibition at 20 min, 1 µM (CYP2D6) [%] | hepatocyte CLint at 1 µM [1, 4] [µL/min/1e6 cells] | solubility at 2 h [2, 5] [µM] | hepatocyte CLint at 1 µM [3, 4] [µL/min/1e6 cells] | hepatocyte CLint at 1 µM [1, 6] [µL/min/1e6 cells] | mPTP Rat liver pIC50 (mPTP) | hepatocyte CLint at 1 µM [3, 7] [µL/min/1e6 cells] | solubility at 2 h [2, 8] [µM] | IC50 (CYP2D6) [µM] | Structure (SMILES) | activity in the rat liver mitochondria assay (in words) (mPTP) |
| --- | --- | --- | --- | --- | --- | --- | --- | --- | --- | --- |
| 1.3 | – | 23.7 (≈ 8.04 µg/mL) | – | 15.6 | 7.3 | 47.8 | – | – | COCc1c(F)cccc1NC(=O)/C=C/c1ccc2c(C)n[nH]c2c1 [Example 50, (E)-N-(3-fluoro-2-(methoxymethyl)phenyl)-3-(3-methyl-1H-indazol-6-yl)acrylamide] | – |
| 2.83 | – | 258 (≈ 88.4 µg/mL) | – | 8.33 | 7.2 | – | – | – | Cc1c(F)cc(F)c(C)c1NC(=O)/C=C/c1ccc2c(c1)NC(=O)C2 [Example 35, (E)-N-(3,5-difluoro-2,6-dimethylphenyl)-3-(2-oxoindolin-6-yl)acrylamide] | – |
| 14.3 | 9.6 | 43.1 (≈ 13.9 µg/mL) | – | – | – | – | – | – | O=C(/C=C/c1cc2[nH]nnc2cc1F)NC1CCc2ccccc21 (stereo not shown) [Example 27, (E)-N-(2,3-dihydro-1H-inden-1-yl)-3-(5-fluoro-1H-benzo[d][1,2,3]triazol-6-yl) acrylamide] | – |
| – | 3 | 19 (≈ 6.47 µg/mL) | 76 | – | – | – | – | – | COCc1c(F)cncc1NC(=O)/C=C/c1ccc2c(C)n[nH]c2c1 [Example 114, (2E)-N-[5-fluoro-4-(methoxymethyl)pyridin-3-yl]-3-(3-methyl-1H-indazol-6-yl)prop-2-enamide] | – |

More lines, now with the values behind:

| Structure (SMILES) | inhibition at 20 min, 1 µM (CYP2D6) [%] | hepatocyte CLint at 1 µM [1, 4] [µL/min/1e6 cells] | solubility at 2 h [2, 5] [µM] | hepatocyte CLint at 1 µM [3, 4] [µL/min/1e6 cells] | hepatocyte CLint at 1 µM [1, 6] [µL/min/1e6 cells] | mPTP Rat liver pIC50 (mPTP) | hepatocyte CLint at 1 µM [3, 7] [µL/min/1e6 cells] | solubility at 2 h [2, 8] [µM] | IC50 (CYP2D6) [µM] | activity in the rat liver mitochondria assay (in words) (mPTP) |
| --- | --- | --- | --- | --- | --- | --- | --- | --- | --- | --- |
| CO[C@H]1Cc2ccccc2[C@@H]1NC(=O)/C=C/c1ccc2c(Cl)n[nH]c2c1 [Example 72, (E)-3-(3-chloro-1H-indazol-6-yl)-N-((1S,2S)-2-methoxy-2,3-dihydro-1H-inden-1-yl)acrylamide] | 9.98 | 11.3 | 24.4 (≈ 8.98 µg/mL) | 77 | – | – | – | – | – | – |
| Cc1c(F)cccc1NC(=O)/C=C/c1ccc2c(C)n[nH]c2c1 [Example 37, (E)-N-(3-fluoro-2-methylphenyl)-3-(3-methyl-1H-indazol-6-yl)acrylamide] | 5.04 | – | 2.95 (≈ 0.913 µg/mL) | – | 18.9 | 8.1 | 87.6 | – | – | highest activity |
| COc1n[nH]c2cc(/C=C/C(=O)N[C@H]3c4ccccc4C[C@@H]3OC)ccc12 [Example 71, (E)-3-(3-methoxy-1H-indazol-6-yl)-N-((1S,2S)-2-methoxy-2,3-dihydro-1H inden-1-yl)acrylamide] | 7.4 | – | 19.9 (≈ 7.25 µg/mL) | – | 8.9 | 7.0 | 72 | – | – | – |
| Cc1ccc(F)c(C)c1NC(=O)/C=C/c1ccc2c(c1)NC(=O)C2 [Example 20, (E)-N-(3-fluoro-2,6-dimethylphenyl)-3-(2-oxoindolin-6-yl)acrylamide] | -1.76 | – | 210 (≈ 68.3 µg/mL) | – | 6.08 | 6.8 | 11.9 | – | – | – |
| Cc1cc(F)c(F)c(C)c1NC(=O)/C=C/c1ccc2c(c1)NC(=O)C2 [Example 36, (E)-N-(3,4-difluoro-2,6-dimethylphenyl)-3-(2-oxoindolin-6-yl)acrylamide] | -2.57 | – | – | – | 7.26 | 7.2 | 9.41 | 65.9 (≈ 22.6 µg/mL) | – | – |
| Cc1cccc(C)c1NC(=O)/C=C/c1ccc2c(c1)[nH]c(=O)n2C [Example 29, (E)-N-(2,6-dimethylphenyl)-3-(1-methyl-2-oxo-2,3-dihydro-1H-benzo[d]imidazol-5-yl)acrylamide] | -3.03 | – | 69.8 (≈ 22.4 µg/mL) | – | – | 6.9 | 16.1 | 33.5 (≈ 10.8 µg/mL) | – | – |
| N#Cc1n[nH]c2cc(/C=C/C(=O)NC3CCc4ccccc43)ccc12 (stereo not shown) [Example 26, (E)-3-(3-cyano-1H-indazol-6-yl)-N-(2,3-dihydro-1H-inden-1-yl)acrylamide] | 3.49 | – | – | – | – | 7.2 | 87.5 | – | 8.8 | – |
